Results as given in the RepoRT retention time repository.

Experiment: Waters ACQUITY UPLC BEH C18, 100 × 2.1 mm, 1.7 µm, 40 °C, 0.3 to 0.4 mL/min, estimated dead time 0.63 min; A: water + 0.1% formic acid; B: methanol + 0.1% formic acid; gradient (min/%B) 0/0.5 0.1/0.5 10/80 10.1/99.5 12/99.5
Conditions: stereoisomer not certain

SMILES	LC retention time
COc1ccc(-c2cc(=O)c3c(O)cc(O)cc3o2)cc1-c1c(O)cc(O)c2c(=O)cc(-c3ccc(O)cc3)oc12	6.07 min
CC1C2CCC3C4CC=C5CC(N(C)C)CCC5(C)C4CCC32CN1C (configuration not stated)	3.35 min
CCCCCC=CCC=CCC=CCCCCC(=O)OC(CO)COP(=O)(O)OCCN (configuration not stated)	8.73 min
COc1cc(-c2cc(=O)c3c(O)c(C4OC(CO)C(O)C(O)C4O)c(OC)cc3o2)ccc1O (configuration not stated)	4.21 min
CC(C)C(O)(C(=O)OCC1CCN2CCCC12)C(C)O (configuration not stated)	3.05 min
CCCCCCCCCCCCC(O)C(O)C(COC1OC(CO)C(O)C(O)C1O)NC(C)=O (configuration not stated)	4.55 min
CCCCCCCCCCCCCCCC(=O)OCC(O)COP(=O)(O)OCCNC1OC(CO)C(O)C(O)C1O (configuration not stated)	9.72 min
COc1ccc2cc1Oc1ccc(cc1)CC1=NCCc3cc(OC)c(cc31)Oc1c(OC)c(OC)c(O)c3c1C(C2)N(C)CC3 (configuration not stated)	3.96 min
O=C1CC(c2ccc(O)c(O)c2)Oc2c1c(OC1OC(CO)C(O)C(O)C1O)cc(O)c2C1OCC(O)C(O)C1O (configuration not stated)	3.22 min
COc1cc(-c2[o+]c3cc(O)cc(O)c3cc2OC2OC(CO)C(O)C(O)C2O)cc(OC)c1O (configuration not stated)	3.19 min
CC(C)CC1NC(=O)C2CCCN2C1=O (configuration not stated)	4.03 min
C=CCSCC(NC(=O)CCC(N)C(=O)O)C(=O)O (configuration not stated)	2.98 min
O=c1cc(-c2ccc(O)cc2)oc2cc(O)ccc12	7.38 min
COC(=O)C1(O)CC23CCCN4CCC5(c6ccc7c(c6NC15CC2)OCO7)C43 (configuration not stated)	3.61 min
O=C(O)c1cc2c(c3c1c([N+](=O)[O-])cc1ccc(O)cc13)OCO2	5.96 min
CCCCCC(=O)OC1C(OC2(CO)OC(CO)C(OC(C)=O)C2O)OC(CO)C(OC(=O)CCCC)C1OC(=O)CCCCC (configuration not stated)	9.49 min
COC1C(O)C(OC2C(OC3C(OC4CCC5(C)C(CCC6(C)C5CC=C5C7CC(C)(C)CC(O)C7(C)CCC56C)C4(C)CO)OC(C(=O)O)C(O)C3O)OC(C(=O)O)C(O)C2O)OC(CO)C1OC(C)=O (configuration not stated)	7.33 min
OCC=Cc1ccc(O)cc1	3.76 min
CC(=O)OCC1OC(OC2C(O)COC(OC3C(O)C(C)(C)CC4C5=CCC6C7(C)CCC(OC8OC(C(=O)O)C(O)C(O)C8OC8OC(CO)C(O)C(O)C8OC8OC(CO)C(O)C(O)C8O)C(C)(CO)C7CCC6(C)C5(C)CCC43C)C2O)C(OC(C)=O)C(OC(C)=O)C1OC(C)=O (configuration not stated)	6.26 min
O=C(O)C=Cc1ccccc1	5.42 min
Cc1[nH]ccc2c1[nH]c1cc(=O)ccc12	3.18 min

SMILES	LC retention time
COc1cc(O)c2c(c1)OC(c1ccc(O)cc1)CC2=O (configuration not stated)	7.42 min
CC=CS(=O)CC(NC=C1OCC(O)C(O)C1O)C(=O)O (configuration not stated)	1.86 min
O=C(O)CC(=O)OCC1OC(Oc2ccc3c(=O)c(-c4ccc(O)cc4)coc3c2)C(O)C(O)C1O (configuration not stated)	4.1 min
COc1cc2ccc(=O)oc2c(OC)c1O	4.28 min
O=C(O)CCCCCCCC(=O)O	4.78 min
O=C1c2ccc(O)cc2OCC1c1ccc(O)c(OC2OC(CO)C(O)C(O)C2O)c1 (configuration not stated)	3.56 min
NCCCCNC(=O)C=Cc1ccc(O)cc1	2.67 min
CC1=C(O)C(=O)CC(OC2CC(C)(C)CC3C4=CCC5C6(C)CCC(OC7OC(C(=O)O)C(O)C(O)C7OC7OCC(O)C(O)C7OC7OC(C)C(O)C(O)C7O)C(C)(CO)C6CCC5(C)C4(C)CCC23C)O1 (configuration not stated)	7.79 min
COc1c(-c2ccccc2)oc2c(OC)c(O)cc(O)c2c1=O	5.71 min
OCC1OC(OC2C(Oc3cc4c(O)cc(O)cc4[o+]c3-c3ccc(O)c(O)c3)OC(CO)C(O)C2O)C(O)C(O)C1O (configuration not stated)	2.77 min
O=c1c(O)c(-c2ccc(O)c(O)c2)oc2cc(OC3OC(CO)C(O)C(O)C3O)c(O)c(O)c12 (configuration not stated)	3.72 min
O=C(CCc1ccc(O)c(O)c1)NCCCCNCCCNC(=O)CCc1ccc(O)c(O)c1	3.14 min
Oc1cc(O)c2cc(OC3OCC(O)C(O)C3O)c(-c3ccc(O)c(O)c3)[o+]c2c1 (configuration not stated)	3.01 min
CC(C)CC(N)C(=O)NC(Cc1ccccc1)C(=O)O (configuration not stated)	3.64 min
CC1OC(Oc2c(-c3ccc(O)c(O)c3)oc3cc(OC4OC(CO)C(O)C(O)C4O)cc(O)c3c2=O)C(OC2OC(COC(=O)C=Cc3ccc(O)cc3)C(O)C(O)C2O)C(O)C1O (configuration not stated)	4.48 min
CCCCCCCCNC(O)CCc1ccc(O)c(OC)c1 (configuration not stated)	5.25 min
CC(C)C(O)(C(=O)OCC1CC[N+]2([O-])CCCC12)C(C)O (configuration not stated)	3.11 min
c1ccc2c3ccn4cc5c(cc4c-3nc2c1)CCCC5	5.23 min
O=C(Cc1c[nH]c2ccccc12)NC(Cc1c[nH]c2ccccc12)C(=O)O (configuration not stated)	6.19 min
CCCCCC(O)C(O)CC=CCCCCCCCC(=O)O (configuration not stated)	8.39 min
COc1ccc(CC2COC(=O)C2Cc2ccc(OC3OC(CO)C(O)C(O)C3O)c(OC)c2)cc1OC (configuration not stated)	5.18 min

SMILES	LC retention time
CC(CSCC(NC(=O)CCC(NCC1(O)OCC(O)C(O)C1O)C(=O)O)C(=O)NCC(=O)O)C(=O)O (configuration not stated)	2.4 min
COc1cc(C=CC(=O)NCCCCC(N)C(=O)O)ccc1O (configuration not stated)	3.08 min
CCC(C)C(N)C(=O)NC(CCC(=O)O)C(=O)O (configuration not stated)	1.98 min
O=C(O)c1cc(O)c(O)c(O)c1	2.04 min
CC(=O)OC1CC(C)CNC12OC1CC3C4CCC5CC(OC6OC(CO)C(OC7OC(CO)C(O)C(OC8OCC(O)C(O)C8O)C7OC7OC(CO)C(O)C(O)C7O)C(O)C6O)CCC5(C)C4CCC3(C)C1C2C (configuration not stated)	4.78 min
O=C1c2c(O)cc(O)cc2OC(c2ccc(O)cc2)C1O (configuration not stated)	4.8 min
O=C(O)C=C(CC(=O)O)C(=O)O	1.61 min
COc1ccc(-c2coc3cc(OC4OC(CO)C(O)C(O)C4O)c(OC)cc3c2=O)cc1 (configuration not stated)	5.05 min
CC(=O)OC1CC(COC2OC(CO)C(O)C(O)C2O)CNC12OC1CC3C4CCC5CC(OC6OC(CO)C(OC7OC(CO)C(OC8OC=C(O)C(O)C8O)C(O)C7OC7OC(CO)C(O)C(O)C7O)C(O)C6O)CCC5(C)C4CCC3(C)C1C2C (configuration not stated)	3.88 min
O=c1cc(-c2ccccc2)oc2cc(O)c(O)c(O)c12	6.4 min
NC(Cc1c[nH]c2ccccc12)C(=O)O (configuration not stated)	2.8 min
C=CC1CN2CCC1CC2C(O)c1ccnc2ccccc12 (configuration not stated)	3.09 min
NC(N)=NCCCCNC(=O)C=Cc1ccc(O)cc1	3.07 min
COc1ccc(C(C)=O)c(O)c1	6.57 min
COC(=O)C1=COC(C)C2CN3CCC4(C(=O)Nc5c4ccc(OC)c5OC)C3CC12 (configuration not stated)	4.48 min
Cc1ncc(COC2OC(CO)C(O)C(O)C2O)c(CO)c1O (configuration not stated)	1.7 min
CC1OC(OCC2OC(Oc3c(-c4ccc(O)c(O)c4)oc4cc(O)cc(O)c4c3=O)C(O)C(O)C2O)C(O)C(O)C1O (configuration not stated)	3.86 min
C=CC1C2=CCOC(=O)C2=COC1OC1OC(CO)C(O)C(O)C1O (configuration not stated)	3.44 min
CC1OC(OC2CCC3(C)C(CCC4(C)C3C=CC3=C5CC(C)(C)CCC5(CO)C(O)CC34C)C2(C)CO)C(O)C(OC2OC(CO)C(O)C(O)C2O)C1O (configuration not stated)	7.11 min
C=C1CC23CC4C5C6(C)CC(OC(C)=O)CC57C2C(O)C1C(O)C3(O)C7N4C6 (configuration not stated)	3.03 min
